Patent US12326385B2, “Cell-permeable fluorogenic fluorophores” (MAX-PLANCK-GESELLSCHAFT ZUR FÖRDERUNG DER WISSENSCHAFTEN E. …, priority 2018, dated 2025)
Marks after values point to notes of the source that are not given here.

How the values were obtained:
[1] = UV-Vis and fluorescence spectroscopy of free dye or probe in buffer or SDS; assay type: physicochemical
Method: UV-Vis and Fluorescence Spectroscopy
Spectroscopy was performed using 96-well plate (Thermo Fisher) with optical bottom. All measurements were taken at ambient temperature (25±2° C.). Absorption and fluorescence spectra were recorded on Spark® microplate reader (Tecan). Maximum absorption wavelength (λabs), and maximum emission wavelength (λem) were taken in 10 mM HEPES, pH 7.3 buffer unless otherwise noted; reported values for ε are averages (n=3). Normalized spectra are shown for clarity.
(§1) SDS (10% in 10 mM HEPES) was added with dilution of 100 folds as a control group. Absorbance and fluorescence measurements were performed in 96-well plate (Thermos Fisher) with optical bottom.

[2] = UV absorbance spectra in water-dioxane mixtures (D50); assay type: physicochemical; conditions: dioxane-H2O mixture (v/v: 90/10-10/90), dielectric constant at half-maximal zwitterion absorbance
Source text: The inventors' efforts to improve the permeability and fluorogenicity of rhodamine derivatives for live-cell imaging focused on increasing the propensity of rhodamines to form the spirocyclic, non-fluorescent form without affecting the spectroscopic properties of the parental molecule. The inventors initially considered replacing the carboxylic acid responsible for formation of the spirolactone with an amide. However, such rhodamine derivatives have been reported to strongly favor spirolactams at physiological pH, making them unsuitable for live-cell imaging. The inventors therefore attempted to destabilize the spirolactam by attaching different electron-withdrawing groups to the underlying amides. Specifically, the inventors converted 6-carboxytetramethylrhodamine (6-TAMRA), a widely used fluorophore with good photophysical properties, into the corresponding acyl cyanamide (132), acyl sulfonamide (133) and acyl sulfamide (134 and 135), (FIG. 32c). The acyl cyanamide of rhodamine B was previously reported to exist as a fluorescent zwitterion at physiological pH. Acyl sulfonamides and acyl sulfamides are used in medicinal chemistry as anionic pharmacophores. Amides 132-135 were prepared in three simple steps from commercially available 6-TAMRA (FIG. 32c). To investigate the propensity of these amides to form the corresponding spirolactams, the inventors measured their absorbance spectra in water-dioxane mixtures with […]. The equilibrium between the zwitterionic and spirocyclic form can then be characterized by the D50 value, which is defined as the dielectric constant at which absorbance of the fluorescent zwitterion is decreased by half compared to the highest recorded absorbance value measured in dioxane-water mixtures. […] In comparison, the D50 value of TAMRA is around 10 showing that in aqueous solution TAMRA exists predominantly in its open form and TAMRA-based probes are usually not fluorogenic. The measured D50 values of amides 132-135 ranged from 32 to around 60 (FIG. 32d), which indicates the potential of these fluorophores for the generation of permeable and fluorogenic probes. […] The possibility to tune the equilibrium between the open and closed form of the fluorophore by varying the substituents on the amide is an important feature of this approach.
Measurements of UV Absorbance Spectra in Water-Dioxane Mixtures
Solutions of 5 μM Rhodamine B, RhB-CH3 (201, Z=CH3), RhB-Ben (201, Z=CH2Ph), RhB-CN (201, Z=CN), RhB-SCH3 (115), RhB-SNH2 (116), RhB-SNMe2 (117), RhB-CONH2 (118), WS1-SCF3, (119) WS1-SCH3 (120), WS1-CN (121), WS1-SNH2 (122), WS1-SO (123), WS1-UREA (124) in water-dioxane mixtures containing 10%, 20%, 30%, 40%, 50%, 60%, 70%, 80% and 90% of dioxane (by volume) were prepared. The absorbance spectra were recorded using a Spark® microplate reader (Tecan). The spectra were integrated from 400 to 700 nm for Rhodamine B-based fluorophores and from 350 to 750 nm for WS1-based fluorophores using the software Prism 7. Normalized integrals were plotted against dielectric constant of water-dioxane mixture.

[3] = system: SNAP-Halo-tag; assay: Increase in absorbance and fluorescence on binding to SNAP-HaloTag protein in vitro; assay type: biochemical; conditions: for Φ / ε^protein / λabs / λem: binding with SNAP-Halo-tag; for F/F0: ± s.e.m.
Method: Measurement of Increase in Absorbance and Fluorescence.
SNAP-HaloTag protein were used as a 85 μM-200 μM solution in 75 mM NaCl, 50 mM TRIS-HCl, pH 7.4 with 50% v/v glycerol (TBS-glycerol). SNAPTag and HaloTag based fluorogenic probes were diluted to 1.0-2.0 μM in 10 mM HEPES, pH 7.3. Then an aliquot of SNAPTag/HaloTag protein (1.5-2.0 equiv) was added and the resulting mixture was incubated until consistent absorbance signal was observed (˜60 min).
as §1

[4] = system: U2OS FlpIn Halo-SNAP-NLS expressing cells; assay: No-wash live-cell confocal imaging, nuclear versus cytosol signal; assay type: cell-based; conditions: for Fnuc./Fcyt.: average ratio between nuclear signal (U2OS FlpIn Halo-SNAP-NLS expressing cells) and cytosol signal (normal U2OS cell), ± s.e.m.; for nuclei to cytosol signal ratio (Fnuc/Fcyt): no-wash live-cell imaging, U2OS cells, 250 nM for MaP555-SNAP and MaP700-Halo; for time to staining / saturation / completion of labeling: nuclear localized HaloTag in U2OS cells, 250 nM for MaP510-Halo and MaP700-Halo
Source text: Self-labeling protein tags such as SNAP-tag and HaloTag are an efficient approach to attach synthetic fluorophores to proteins in living cells. The main challenge when using these tags for live-cell imaging is the low cell permeability of most fluorescent probes used for labeling and high background signal resulting from their unspecific binding. SNAP-tag fusion proteins can be specifically labeled with different fluorophores using appropriate O^6-benzlyguanine derivatives. A 6-TAMRA based probe (150) for SNAP-tag has been previously introduced for live-cell imaging, but its low cell-permeability and lack of fluorogenicity requires the use of high concentrations (5 μM) and repeated washing steps to remove excess and non-specifically bound probe. To address these problem, the inventors coupled fluorophores 132-135 to O^6-benzylguanine to obtain probes 152, 154, 156, and 158. […] The inventors then examined the performance of probes 150, 152, 154, 156, and 158 in live-cell imaging, in which U2OS cells stably expressing a nuclear localized SNAP-Halo fusion protein were co-cultured with regular U2OS cells not expressing any protein tags. […] Furthermore, the kinetics of labeling of nuclear localized SNAP-tag with MaP555-SNAP were much faster than those of control […]. The inventors then prepared the corresponding 6-TAMRA-based probes 151, 153, 155, 157, and 159 for HaloTag. As for SNAP-tag, the probe with the largest enhancement in absorbance (16-fold) and fluorescence intensity (35-fold) in in vitro assays was based on the N,N-dimethylsulfamide derivative 159 (abbreviated as MaP555-Halo in the following). […] The excellent performance of MaP555-SNAP and MaP555-Halo in live-cell imaging experiments support the inventors' assumption that establishing a dynamic equilibrium between the fluorescent zwitterion and the more hydrophobic spirolactam enables the generation of highly cell-permeable and fluorogenic probes for live-cell imaging.
Generation of U2OS FlpIn Halo-SNAP-NLS Cell Lines
The Flp-In™ System (ThermoFisher Scientific) was used to generated U2OS FlpIn Halo-SNAP-NLS expressing cells. pcDNA5-FRT-Halo-SNAP-NLS and pOG44 were co-transfected into the host cell line U2OS FLpIn (Malecki et al. Molecular and Cellular Biology 26, 4642 (2006)). Homologous recombination between the FRT sites in pcDNA5-FRT-Halo-SNAP-NLS and on the host cell chromosome, catalysed by the Flp recombinase expressed from pOG44, produced the U2OS FlpIn Halo-SNAP-NLS stably expressing cells.
Live-Cell Confocal Imaging
U2OS FlpIn Halo-SNAP-NLS expressing cells were grown in 96-well plate (Thermos Fisher) with optical bottom at 37° C. in a humidified 5% (vol/vol) CO2 environment. 50-500 nM probes and 2 μM verapamil were added and incubated for 1 h in DMEM media (Evrogen) containing 10% FBS. The cells were directly used to image without washing. Meanwhile, another group was imaged after being washed 2 times for 5 min with 1× phosphate buffered saline (PBS, pH 7.4) and DMEM supplemented with 10% FBS. Imaging was performed using Leica TCS SP8 confocal microscope. TMR- and Rhodamine B—, and Rhodamine 110-based probes were excited at 540 nm and the fluorescence signal was collected from 560-700 nm. Semi-Rhodamine-based probes were excited at 650 nm and the fluorescence signal was […] from 670-760 nm. Images were processed with Fiji (http://fiji.sc/wiki/index.php/Fiji) to obtain MIP (maximum intensity projections)

[5] = 0.1% SDS in HEPES buffer (pH 7.3)
[6] = ratio of fluorescence intensities at 635 nm in the presence and absence of SNAP-Halo-tag
[7] = upon binding to HaloTag, in vitro

| SMILES | Φ [1, 5] | Φ ([1]; HEPES buffer (pH 7.3)) | ε ([1]; HEPES buffer (pH 7.3)) | λabs ([1]; HEPES buffer (pH 7.3)) [nm] | λem ([1]; HEPES buffer (pH 7.3)) [nm] | D50 [2] | Φ [3] | further results |
| --- | --- | --- | --- | --- | --- | --- | --- | --- |
| CN(C)c1ccc2c(-c3cc(C(=O)[O-])ccc3C(=O)O)c3ccc(=[N+](C)C)cc-3oc2c1 [6-TAMRA, 6-carboxytetramethylrhodamine, reference compound] | 0.39 | 0.43 | 84,000^a M^−1cm^−1 | 550 | 578 | 12^d | – | D50 ([2]; listed as TAMRA): around 10 |
| Cl.N=c1ccc2c(-c3ccccc3C(=O)O)c3ccc(N)cc3oc-2c1 [R110, Rhodamine 110, reference compound] | – | – | – | – | – | 15 | – | – |
| CN(C)S(=O)(=O)N1C(=O)c2ccc(C(=O)O)cc2C12c1ccc(N)cc1Oc1cc(N)ccc12 [compound 21] | 0.69 | 0.68 | 74,000^a M^−1cm^−1 | 502 | 526 | 70^d | – | D50 ([2]; listed as MaP510): 70 |
| CN1CCc2cc3c(cc21)[Si](C)(C)c1cc2c(cc1C31OC(=O)c3ccc(C(=O)O)cc31)CCN2C [compound 35, reference compound] | 0.16 | – | 104,000^a M^−1cm^−1 | 694 | 718 | 54^d | 0.17 | – |
| CN(C)c1ccc2c(c1)Oc1cc(N(C)C)ccc1C21c2cc(C(=O)O)ccc2C(=O)N1C#N [compound 132] | 0.45^a/0.45^c | 0.45^a/0.45^c | 89,000^a M^−1cm^−1 | 552 | 580 | 32^d | – | – |
| CN(C)c1ccc2c(c1)Oc1cc(N(C)C)ccc1C21c2cc(C(=O)O)ccc2C(=O)N1S(C)(=O)=O [compound 133] | 0.46 | 0.43 | 89,000^a M^−1cm^−1 | 553 | 580 | 44^d | – | – |
| CN(C)c1ccc2c(c1)Oc1cc(N(C)C)ccc1C21c2cc(C(=O)O)ccc2C(=O)N1S(N)(=O)=O [compound 134] | 0.44^a/0.44^c | 0.44^a/0.44^c | 83,000^a M^−1cm^−1 | 552 | 580 | 57^d | – | – |
| CN(C)c1ccc2c(c1)Oc1cc(N(C)C)ccc1C21c2cc(C(=O)O)ccc2C(=O)N1S(=O)(=O)N(C)C [compound 135] | 0.43 | 0.4 | 88,000^a M^−1cm^−1 | 553 | 580 | 58^d | – | – |
| CN1CCc2cc3c(cc21)[Si](C)(C)c1cc2c(cc1C31c3cc(C(=O)O)ccc3C(=O)N1C#N)CCN2C [compound 140] | – | – | 8,200^a M^−1cm^−1 | 698 | 720 | >75^d | – | – |
| CN(C)c1ccc2c(c1)C(C)(C)c1cc(N(C)C)ccc1C21c2cc(C(=O)NCCOCCOCCCCCCCl)ccc2C(=O)N1S(N)(=O)=O [compound 165] | – | – | 440 M⁻¹ cm⁻¹ | – | – | – | 0.58^b/— | ε^SDS [1, 5]: 8,300^c M^−1cm^−1; ε^protein [3]: 101,000 M^−1cm^−1; λabs [3]: 618 nm; λem [3]: 635 nm; F/F0 [3, 6]: 611 ± 42^e; Fnuc./Fcyt. [4]: 30 ± 4.5^f |
| CN(C)c1ccc2c(c1)C(C)(C)c1cc(N(C)C)ccc1C21c2cc(C(=O)NCCOCCOCCCCCCCl)ccc2C(=O)N1S(=O)(=O)N(C)C [compound 167] | – | – | 260 M⁻¹ cm⁻¹ | – | – | – | 0.61^b/— | ε^SDS [1, 5]: 7,200^c M^−1cm^−1; ε^protein [3]: 107,000 M^−1cm^−1; λabs [3]: 618 nm; λem [3]: 635 nm; F/F0 [3, 6]: 1000 ± 44^e; increase in fluorescence intensity [3, 7]: 1000 fold; Fnuc./Fcyt. [4]: 58 ± 3.9^f; nuclei to cytosol signal ratio (Fnuc/Fcyt) [4]: 58; time to staining / saturation / completion of labeling [4]: ≤ 5 min |
| CN1CCc2cc3c(cc21)[Si](C)(C)c1cc2c(cc1C31c3cc(C(=O)NCCOCCOCCCCCCCl)ccc3C(=O)N1C#N)CCN2C [compound 168] | 0.18 | – | 340 M⁻¹ cm⁻¹ | – | – | – | 0.24 | ε^SDS [1, 5]: 12,000^c M^−1cm^−1; ε^protein [3]: 52,000 M^−1cm^−1; λabs [3]: 700 nm; λem [3]: 720 nm; F/F0 ([3]; ratio of fluorescence intensities at 720 nm in the presence and absence of SNAP-Halo-tag): 650 ± 5.8^e; increase in absorbance [3, 7]: 150 fold; increase in fluorescence intensity [3, 7]: 650 fold; Fnuc./Fcyt. [4]: 47 ± 3.4^f; nuclei to cytosol signal ratio (Fnuc/Fcyt) [4]: 47; time to staining / saturation / completion of labeling [4]: ≤ 10 min |
